Test results reported in US11083725B2 (priority 2014, dated 2021).

What was measured:
CA09 = assay: microbe, parasite or virus in culture; type: cell-based, influenza virus H1N1 strain A/CA/04/2009; conditions: NHBE, read-out: TCID50 (per mL)
NHBE cells = assay: Biolog metabolic array: substrate use by NHBE cells with or without CA09 infection; type: cell-based, human; conditions: for Substrate use, 590 nm absorbance normalized to zero hour, 0 hr: Biolog PMM2, 0 hr; for Substrate use, 590 nm absorbance normalized to zero hour, 5 hr: Biolog PMM2, 5 hr; for Substrate use, 590 nm absorbance normalized to zero hour, 7 hr: Biolog PMM2, 7 hr; for Substrate use, 590 nm absorbance normalized to zero hour, 1 hr: Biolog PMM2, 1 hr
[1] = Control (uninfected) NHBE cells
[2] = Virus (CA09-infected, MOI 1) NHBE cells
[3] = Virus: CA09-infected NHBE cells, MOI 1, Biolog PMM2

| Molecule | 590 nm absorbance normalized to zero hour (substrate use), 0 hr (NHBE cells; [1]) | 590 nm absorbance normalized to zero hour (substrate use), 6 hr (NHBE cells; [1]) | 590 nm absorbance normalized to zero hour (substrate use), 8 hr (NHBE cells; [1]) | 590 nm absorbance normalized to zero hour (substrate use), 9 hr (NHBE cells; [1]) | 590 nm absorbance normalized to zero hour (substrate use), 10 hr (NHBE cells; [1]) | 590 nm absorbance normalized to zero hour (substrate use), 11 hr (NHBE cells; [1]) | Substrate use, 590 nm absorbance normalized to zero hour, 0 hr (NHBE cells; [1]) | Substrate use, 590 nm absorbance normalized to zero hour, 7 hr (NHBE cells; [1]) | 590 nm absorbance normalized to zero hour (substrate use), 0 hr (NHBE cells; [2]) | 590 nm absorbance normalized to zero hour (substrate use), 1 hr (NHBE cells; [2]) | 590 nm absorbance normalized to zero hour (substrate use), 2 hr (NHBE cells; [2]) | 590 nm absorbance normalized to zero hour (substrate use), 3 hr (NHBE cells; [2]) | 590 nm absorbance normalized to zero hour (substrate use), 5 hr (NHBE cells; [2]) | 590 nm absorbance normalized to zero hour (substrate use), 7 hr (NHBE cells; [2]) | 590 nm absorbance normalized to zero hour (substrate use), 8 hr (NHBE cells; [2]) | 590 nm absorbance normalized to zero hour (substrate use), 9 hr (NHBE cells; [2]) | 590 nm absorbance normalized to zero hour (substrate use), 11 hr (NHBE cells; [2]) | 590 nm absorbance normalized to zero hour (substrate use), 0 hr (NHBE cells; [3]) | 590 nm absorbance normalized to zero hour (substrate use), 1 hr (NHBE cells; [3]) | 590 nm absorbance normalized to zero hour (substrate use), 2 hr (NHBE cells; [3]) | other results |
| --- | --- | --- | --- | --- | --- | --- | --- | --- | --- | --- | --- | --- | --- | --- | --- | --- | --- | --- | --- | --- | --- |
| O=C(CO)[C@@H](O)[C@@H](O)[C@H](O)[C@H](O)CO [D-mannoheptulose] |  |  |  |  |  |  |  |  |  |  |  |  |  |  |  |  |  |  |  |  | log reduction at 10 pM (CA09): 0; log reduction at 0.0001 µM (CA09): 0.76; log reduction at 0.001 µM (CA09): 0.56; log reduction at 0.01 µM (CA09): 0; log reduction at 0.1 µM (CA09): 0.25; log reduction at 1 µM (CA09): 0.88; log reduction at 10 µM (CA09): 0.4; log reduction at 100 µM (CA09): -0.03 |
| Dextrin | 1.00 | 4.79 | 8.34 | 9.71 | 8.28 | 8.41 | 1.00 | 7.35 | 1.00 | 2.14 | 2.79 | 3.43 | 4.91 | 6.11 | 6.72 | 7.89 | 6.40 | 1.00 | 2.14 | 2.79 | 590 nm absorbance normalized to zero hour (substrate use), 2 hr (NHBE cells; [1]): 3.19; 590 nm absorbance normalized to zero hour (substrate use), 3 hr (NHBE cells; [1]): 4.01; Substrate use, 590 nm absorbance normalized to zero hour, 5 hr (NHBE cells; [1]): 6.14; 590 nm absorbance normalized to zero hour (substrate use), 4 hr (NHBE cells; [2]): 3.84; 590 nm absorbance normalized to zero hour (substrate use), 6 hr (NHBE cells; [2]): 5.56; 590 nm absorbance normalized to zero hour (substrate use), 10 hr (NHBE cells; [2]): 8.23; 590 nm absorbance normalized to zero hour (substrate use), 3 hr (NHBE cells; [3]): 3.43; 590 nm absorbance normalized to zero hour (substrate use), 4 hr (NHBE cells; [3]): 3.84; 590 nm absorbance normalized to zero hour (substrate use), 5 hr (NHBE cells; [3]): 4.91; 590 nm absorbance normalized to zero hour (substrate use), 6 hr (NHBE cells; [3]): 5.56; 590 nm absorbance normalized to zero hour (substrate use), 7 hr (NHBE cells; [3]): 6.11; 590 nm absorbance normalized to zero hour (substrate use), 8 hr (NHBE cells; [3]): 6.72; 590 nm absorbance normalized to zero hour (substrate use), 9 hr (NHBE cells; [3]): 7.89; 590 nm absorbance normalized to zero hour (substrate use), 10 hr (NHBE cells; [3]): 8.23; 590 nm absorbance normalized to zero hour (substrate use), 11 hr (NHBE cells; [3]): 6.40 |
| Glycogen | 1.00 | 4.32 | 4.85 | 4.87 | 4.50 | 5.01 | 1.00 | 4.20 | 1.00 | 1.68 | 2.26 | 2.71 | 3.70 | 4.74 | 5.48 | 3.99 | 4.63 | 1.00 | 1.68 | 2.26 | 590 nm absorbance normalized to zero hour (substrate use), 1 hr (NHBE cells; [1]): 1.61; 590 nm absorbance normalized to zero hour (substrate use), 4 hr (NHBE cells; [1]): 2.80; Substrate use, 590 nm absorbance normalized to zero hour, 1 hr (NHBE cells; [1]): 1.61; Substrate use, 590 nm absorbance normalized to zero hour, 3 hr (NHBE cells; Control (uninfected) NHBE cells, Biolog PMM2, 3 hr): 2.58; 590 nm absorbance normalized to zero hour (substrate use), 4 hr (NHBE cells; [2]): 2.92; 590 nm absorbance normalized to zero hour (substrate use), 10 hr (NHBE cells; [2]): 4.33; 590 nm absorbance normalized to zero hour (substrate use), 3 hr (NHBE cells; [3]): 2.71; 590 nm absorbance normalized to zero hour (substrate use), 4 hr (NHBE cells; [3]): 2.92; 590 nm absorbance normalized to zero hour (substrate use), 5 hr (NHBE cells; [3]): 3.70; 590 nm absorbance normalized to zero hour (substrate use), 7 hr (NHBE cells; [3]): 4.74; 590 nm absorbance normalized to zero hour (substrate use), 8 hr (NHBE cells; [3]): 5.48; 590 nm absorbance normalized to zero hour (substrate use), 9 hr (NHBE cells; [3]): 3.99; 590 nm absorbance normalized to zero hour (substrate use), 10 hr (NHBE cells; [3]): 4.33; 590 nm absorbance normalized to zero hour (substrate use), 11 hr (NHBE cells; [3]): 4.63 |
| Mannan | 1.00 | 1.80 | 1.08 | 1.09 | 1.11 | 1.27 | 1.00 | 1.15 | 1.00 | 1.03 | 1.25 | 1.28 | 1.41 | 1.49 | 1.49 | 1.61 | 1.76 | 1.00 | 1.03 | 1.25 | 590 nm absorbance normalized to zero hour (substrate use), 1 hr (NHBE cells; [1]): 1.03; 590 nm absorbance normalized to zero hour (substrate use), 2 hr (NHBE cells; [1]): 0.89; 590 nm absorbance normalized to zero hour (substrate use), 3 hr (NHBE cells; [1]): 1.03; 590 nm absorbance normalized to zero hour (substrate use), 4 hr (NHBE cells; [1]): 1.06; Substrate use, 590 nm absorbance normalized to zero hour, 1 hr (NHBE cells; [1]): 1.03; Substrate use, 590 nm absorbance normalized to zero hour, 5 hr (NHBE cells; [1]): 1.14; 590 nm absorbance normalized to zero hour (substrate use), 6 hr (NHBE cells; [2]): 1.44; 590 nm absorbance normalized to zero hour (substrate use), 3 hr (NHBE cells; [3]): 1.28; 590 nm absorbance normalized to zero hour (substrate use), 5 hr (NHBE cells; [3]): 1.41; 590 nm absorbance normalized to zero hour (substrate use), 6 hr (NHBE cells; [3]): 1.44; 590 nm absorbance normalized to zero hour (substrate use), 7 hr (NHBE cells; [3]): 1.49; 590 nm absorbance normalized to zero hour (substrate use), 8 hr (NHBE cells; [3]): 1.49; 590 nm absorbance normalized to zero hour (substrate use), 9 hr (NHBE cells; [3]): 1.61; 590 nm absorbance normalized to zero hour (substrate use), 11 hr (NHBE cells; [3]): 1.76 |
| Pectin | 1.00 | 2.65 | 0.95 | 1.44 | 1.37 | 0.91 | 1.00 | 1.44 | 1.00 | 3.25 | 2.85 | 0.75 | 0.91 | 1.00 | 1.05 | 1.15 | 1.27 | 1.00 | 3.25 | 2.85 | 590 nm absorbance normalized to zero hour (substrate use), 1 hr (NHBE cells; [1]): 3.40; 590 nm absorbance normalized to zero hour (substrate use), 2 hr (NHBE cells; [1]): 1.82; 590 nm absorbance normalized to zero hour (substrate use), 3 hr (NHBE cells; [1]): 1.76; 590 nm absorbance normalized to zero hour (substrate use), 4 hr (NHBE cells; [1]): 1.72; Substrate use, 590 nm absorbance normalized to zero hour, 1 hr (NHBE cells; [1]): 3.40; Substrate use, 590 nm absorbance normalized to zero hour, 5 hr (NHBE cells; [1]): 1.45; 590 nm absorbance normalized to zero hour (substrate use), 4 hr (NHBE cells; [2]): 0.80; 590 nm absorbance normalized to zero hour (substrate use), 6 hr (NHBE cells; [2]): 0.95; 590 nm absorbance normalized to zero hour (substrate use), 10 hr (NHBE cells; [2]): 1.17; 590 nm absorbance normalized to zero hour (substrate use), 3 hr (NHBE cells; [3]): 0.75; 590 nm absorbance normalized to zero hour (substrate use), 4 hr (NHBE cells; [3]): 0.80; 590 nm absorbance normalized to zero hour (substrate use), 5 hr (NHBE cells; [3]): 0.91; 590 nm absorbance normalized to zero hour (substrate use), 6 hr (NHBE cells; [3]): 0.95; 590 nm absorbance normalized to zero hour (substrate use), 7 hr (NHBE cells; [3]): 1.00; 590 nm absorbance normalized to zero hour (substrate use), 8 hr (NHBE cells; [3]): 1.05; 590 nm absorbance normalized to zero hour (substrate use), 9 hr (NHBE cells; [3]): 1.15; 590 nm absorbance normalized to zero hour (substrate use), 10 hr (NHBE cells; [3]): 1.17; 590 nm absorbance normalized to zero hour (substrate use), 11 hr (NHBE cells; [3]): 1.27 |
